US20040141944A1, “Inhibition of xenoreactive antibodies” (priority 1998, published 2004)

Columns and labels:
[1] = tested on: peripheral blood-derived ASCs; experiment: short-term in vitro effects of TPC on peripheral blood-derived ASCs (ELISPOT); type: cell-based; conditions: 50 ug/mL TPC (410S), 2 hours at 37° C., heparinized peripheral blood from a normal donor
Method: (§1) To each well of the first 10 columns of a sterile hydrazine modified polystyrene 96-well plate (Corning Costar, Cambridge, Mass.), 100 μL per well of a solution containing 3.2 mg/mL αGal(1,3)Gal β 1-4 GlcNAc, 3.1 mg/mL EDC and 2.4 mg/mL NHS were added in a darkened cold room and the reaction proceeded for four hours. After careful washing with sterile H2O, the plates were completely covered with plastic strips and stored at 4° C. until use. Plates were blocked with sterile 400 ul/well of PBS/1% HSA for 2 hours at 37° C. Peripheral blood mononuclear cells were isolated by Ficoll-Hypaque (specific gravity, 1.077 g/mL; Pharmacia Fine Chemicals, Piscatawy, N.J.) density gradients at 400 g for 30 min. at 22° C. […] Plates were incubated overnight in the dark at room temperature and single Ab-secreting, spot forming cells (ASC) were visualized, analyzed and counted under low magnification using an inverted phase microscope. Data represents total isotype specific anti-gal Ab-secreting cells/10^6 PBMNCs, calculated from serially diluted cell samples.
short-term in vitro effects of TPC on peripheral blood-derived ASCs were assessed by incubating (2 hours at 37° C., with rotation at 6 rpm) heparinized peripheral blood from a normal donor in the presence or absence of 50 ug/mL TPC (410S). […]

[2] = tested on: Purified CD19+B cells; experiment: effect of TPC on T cell-independent anti-Gal B cell activation (ELISPOT); type: cell-based; conditions: TPC (410S) 1 mg/mL pretreatment 30 min or 50 ug/mL daily; 5 day culture with SAC, IL-2, IL-4, anti-CD40
Method: as §1
Purified CD19+B cells were obtained by positive selection with the use of anti-CD19+ immunomagnetic beads (Pan-B (CD19); Dynal, Lake Success, N.Y.). […] Following the 5 day culture period, cells were washed extensively, counted, viability determined and the number of ASC determined using the anti-Gal ELISPOT assay. […]

[3] = tested on: kidney from a transgenic pig expressing human CD59, human CD46 and human DAF; experiment: transgenic pig kidney transplant into TPC-treated baboon; type: in vivo
Method: Immunoapheresis #1 reduced circulating IgM XNA levels to 40% of pretreatment levels. Two days later, a rebound to about 50% of pretreatment levels was observed, and after a second immunoapheresis plus administration of 250 mg TPC, circulating IgM xXNA levels were undetectable. Three days later, a rebound in IgM XNA to 35% pretreatment levels occurred, and administration of 250 mg TPC brought these levels to about 5%. […] On day 31, a kidney from a transgenic pig expressing human CD59, human CD46 and human DAF was transplanted into the baboon, and a bilateral nephrectomey was performed on the baboon native kidneys. Thus, the baboon was dependent upon the porcine kidneys for physiological function.

(αGal(1,3)Gal β 1-4 GlcNAc)4-PEG [Example 410S]
effect on the number of detectable ASCs [1]: no effect | effect on total cell yield and viability [1]: no effect | effect on the number of detectable ASCs [2]: no effect | effect on total cell yield and viability [2]: no effect | pathology analysis of the explanted pig kidney ([3]; Baboon 376-96, transplant on day 31, euthanized post-op day 4): no evidence of hyperacute rejection | function of the transplanted kidney ([3]; Baboon 376-96, transplant on day 31 with bilateral nephrectomy): primary nonfunction
